The values below come from US9078444B2, “Isothiazoline derivatives as insecticidal compounds” (Syngenta Participations AG, priority 2011, dated 2015).

What all share (format): in vivo
In experiment [1] the test system is Spodoptera littoralis. Put plainly: Spodoptera littoralis persistence test on sprayed cotton plants (increased safety profile / bio-degradability). The conditions noted are these: 12.5 ppm on cotton plants, 10 L3 larvae, mortality after 6 days incubation; for Control after 10 days/%: leaves excised 10 days after treatment; for pest or weed control at 12.5 ppm: Spodoptera littoralis. The protocol: Biological Examples Showing Increased Safety Profile:
Spodoptera littoralis (Egyptian Cotton Leafworm)
Cotton plants in the 5th leaf stage (around 5 weeks old) are treated in an automated turn table spray chamber. Plants are stored in the greenhouse length during the whole test period.
2, 16 and optionally 10 days after treatment 4 leaves from each sample are excised, placed into 14 cm plastic petri dishes on wet filter paper. The infestation of 10 L3-Spodoptera littoralis is made immediately afterwards. After an incubation period of 6 days the samples are checked for mortality.
In the following series of experiments the compounds of the invention are compared with the corresponding isoxazoline analogues from the prior art on Spodoptera littoralis (Egyptian cotton leafworm) performed as described in the method above.

The test system of the next experiment is Diabrotica balteata. Kind of experiment: Diabrotica balteata (corn root worm) artificial diet test. Particulars: 120 h, 200 ppm (concentration in well 18 ppm), L2 larvae, larval mortality and growth regulation after 5 days. The method, then: Diabrotica balteata (Corn Root Worm): A 24-well microtiter plate (MTP) with artificial diet was treated with test solutions at an application rate of 200 ppm (concentration in well 18 ppm) by pipetting. After drying, the MTPs were infested with L2 larvae (6-10 per well). After an incubation period of 5 days, samples were checked for larval mortality and growth regulation.

The next experiment concerns Plutella xylostella. Put plainly: Plutella xylostella (diamond back moth) artificial diet test. Particulars: 144 h, 200 ppm (concentration in well 18 ppm), L2 larvae, larval mortality and growth regulation after 6 days. The protocol:
Plutella xylostella (Diamond Back Moth): 24-well microtiter plate (MTP) with artificial diet was treated with test solutions at an application rate of 200 ppm (concentration in well 18 ppm) by pipetting. After drying, the MTPs were infested with L2 larvae (7-12 per well). After an incubation period of 6 days, samples were checked for larval mortality and growth regulation.

Another experiment concerns Tetranychus urticae. Kind of experiment: Tetranychus urticae (two-spotted spider mite) bean leaf disc test. The conditions noted are these: foliar, 192 h, 200 ppm sprayed on bean leaf discs, mixed ages, egg, larval and adult mortality 8 days later. From the text: Tetranychus urticae (Two-Spotted Spider Mite): Bean leaf discs on agar in 24-well microtiter plates were sprayed with test solutions at an application rate of 200 ppm. After drying, the leaf discs are infested with mite populations of mixed ages. 8 days later, discs are checked for egg mortality, larval mortality, and adult mortality.

For a further experiment, the system named is Heliothis virescens. Kind of experiment: Heliothis virescens (tobacco budworm) egg test on artificial diet. The conditions noted are these: 96 h, 200 ppm (concentration in well 18 ppm), eggs on artificial diet, egg mortality, larval mortality, growth regulation after 4 days. The protocol: Heliothis virescens (Tobacco Budworm): Eggs (0-24 h old) were placed in 24-well microtiter plate on artificial diet and treated with test solutions at an application rate of 200 ppm (concentration in well 18 ppm) by pipetting. After an incubation period of 4 days, samples were checked for egg mortality, larval mortality, and growth regulation.

In experiment [2] the test system is Spodoptera littoralis. Kind of experiment: Spodoptera littoralis (Egyptian cotton leafworm) cotton leaf disc test. The conditions noted are these: foliar, 72 h, 200 ppm sprayed on cotton leaf discs, mortality, feeding behavior, growth regulation 3 days after treatment. The method, then: Spodoptera littoralis (Egyptian Cotton Leafworm): Cotton leaf discs were placed on agar in a 24-well microtiter plate and sprayed with test solutions at an application rate of 200 ppm. After drying, the leaf discs were infested with […]. The samples were checked for mortality, feeding behavior, and growth regulation 3 days after treatment (DAT).

Another experiment has as its system Thrips tabaci. Put plainly: Thrips tabaci (onion thrips) sunflower leaf disc test. The conditions noted are these: foliar, 168 h, 200 ppm sprayed on sunflower leaf discs, mixed ages, mortality after 7 days. The protocol:
Thrips tabaci (Onion Thrips): Sunflower leaf discs were placed on agar in a 24-well microtiter plate and sprayed with test solutions at an application rate of 200 ppm. After drying, the leaf discs were infested with a thrips population of mixed ages. After an incubation period of 7 days, samples were checked for mortality.

[3] abbreviates: 48 h, leaves excised 2 days after treatment, read-out: Control after 2 days/%.
Setting [4] is: 384 h, leaves excised 16 days after treatment, read-out: Control after 16 days/%.

Where two headings read alike, the source gives them in different places.

As for `Cc1cc(C2=NOC(c3cc(Cl)cc(Cl)c3)(C(F)(F)F)C2)ccc1C(=O)NC1CS(=O)(=O)C1` (centres unmarked) [Compound A10 from WO2009/080250, reference compound], the “Control after 10 days/%” value with Spodoptera littoralis [1] is 100%. The pest or weed control at 12.5 ppm with Spodoptera littoralis [1] (setting [3]) and with Spodoptera littoralis [1] (setting [4]) was 100% each time.

As to `Cc1cc(C2=NOC(c3cc(Cl)cc(Cl)c3)(C(F)(F)F)C2)ccc1C(=O)NCC(=O)NCC(F)(F)F` (centres unmarked) [Compound 3-086 from EP1731512, reference compound], the “Control after 10 days/%” value in the experiment on Spodoptera littoralis [1] is 100%. The pest or weed control at 12.5 ppm in the experiment on Spodoptera littoralis [1] (setting [3]) and in the experiment on Spodoptera littoralis [1] (setting [4]) was 100% each time.

In the case of `Cc1cc(C2=NSC(c3cc(Cl)cc(Cl)c3)(C(F)(F)F)C2)ccc1C(=O)NCC1CCCO1` (centres unmarked) [Compound A09], the pest or weed control at 200 ppm in the experiment with Diabrotica balteata, in the experiment with Plutella xylostella, with Tetranychus urticae, in the experiment with Heliothis virescens, with Spodoptera littoralis [2] and in the experiment on Thrips tabaci was at least 80% each time.

As for `N#Cc1cc(C2=NSC(c3cc(Cl)cc(Cl)c3)(C(F)(F)F)C2)ccc1-n1cncn1` (centres unmarked) [Compound B1, 5-[5-(3,5-dichlorophenyl)-5-(trifluoromethyl)-4,5-dihydro-isothiazol-3-yl]-2-(1,2,4-triazol-1-yl)benzonitrile], the pest or weed control at 200 ppm in the experiment on Diabrotica balteata, with Plutella xylostella, in the experiment with Tetranychus urticae, with Heliothis virescens, in the experiment on Spodoptera littoralis [2] and in the experiment on Thrips tabaci was at least 80% in each case.

Take `C=CCNC(=O)c1ccc(C2=NSC(c3cc(Cl)cc(Cl)c3)(C(F)(F)F)C2)cc1C` (centres unmarked) [Compound A63]: the pest or weed control at 200 ppm in the experiment with Diabrotica balteata, in the experiment on Plutella xylostella, in the experiment on Tetranychus urticae, in the experiment with Heliothis virescens, in the experiment with Spodoptera littoralis [2] and in the experiment with Thrips tabaci was at least 80% in each case.

On to `CSCCNC(=O)c1ccc(C2=NSC(c3cc(Cl)cc(Cl)c3)(C(F)(F)F)C2)cc1C` (centres unmarked) [Compound A26], for which the pest or weed control at 200 ppm in the experiment on Diabrotica balteata, in the experiment on Plutella xylostella, with Tetranychus urticae, in the experiment on Heliothis virescens, in the experiment with Spodoptera littoralis [2] and in the experiment with Thrips tabaci was at least 80% in each case.

In the case of `Cc1cc(C2=NSC(c3cc(Cl)cc(Cl)c3)(C(F)(F)F)C2)ccc1C(=O)Nc1cccc(F)c1` (centres unmarked) [Compound A15], the pest or weed control at 200 ppm with Diabrotica balteata, with Plutella xylostella, in the experiment on Tetranychus urticae, in the experiment with Heliothis virescens, with Spodoptera littoralis [2] and in the experiment with Thrips tabaci was at least 80% in each case.

For the compound `Cc1cc(C2=NSC(c3cc(Cl)cc(Cl)c3)(C(F)(F)F)C2)ccc1C(=O)NCC(F)F` (centres unmarked) [Compound A42], the pest or weed control at 200 ppm with Diabrotica balteata, with Plutella xylostella, in the experiment with Tetranychus urticae, in the experiment on Heliothis virescens, in the experiment on Spodoptera littoralis [2] and with Thrips tabaci was at least 80% in each case.

With `CCO/N=C/NC(=O)c1ccc(C2=NSC(c3cc(Cl)cc(Cl)c3)(C(F)(F)F)C2)cc1C` (centres unmarked) [Compound C2, 4-[5-(3,5-dichlorophenyl)-5-(trifluoromethyl)-4H-isothiazol-3-yl]-N-[(E)-ethoxyiminomethyl]-2-methyl-benzamide], the pest or weed control at 200 ppm in the experiment with Diabrotica balteata, in the experiment on Plutella xylostella, in the experiment on Tetranychus urticae, with Heliothis virescens, in the experiment with Spodoptera littoralis [2] and with Thrips tabaci was at least 80% in each case.

For the compound `Cc1cc(C2=NSC(c3cc(Cl)cc(Cl)c3)(C(F)(F)F)C2)ccc1C(=O)NC1CC1` (centres unmarked) [Compound A52], the pest or weed control at 200 ppm with Diabrotica balteata, in the experiment with Plutella xylostella, in the experiment with Tetranychus urticae, in the experiment with Heliothis virescens, in the experiment with Spodoptera littoralis [2] and in the experiment on Thrips tabaci was at least 80% throughout.

Take `Cc1cc(C2=NSC(c3cc(Cl)cc(Cl)c3)(C(F)(F)F)C2)ccc1C(=O)NCC(F)(F)F` (centres unmarked) [Compound A03]: the pest or weed control at 200 ppm in the experiment with Diabrotica balteata, with Plutella xylostella, with Tetranychus urticae, in the experiment with Heliothis virescens, in the experiment with Spodoptera littoralis [2] and with Thrips tabaci was at least 80% in each case.

With `COCCNC(=O)c1ccc(C2=NSC(c3cc(Cl)cc(Cl)c3)(C(F)(F)F)C2)cc1C` (centres unmarked) [Compound A51], the pest or weed control at 200 ppm in the experiment on Diabrotica balteata, with Plutella xylostella, in the experiment with Tetranychus urticae, with Heliothis virescens, in the experiment with Spodoptera littoralis [2] and in the experiment on Thrips tabaci was at least 80% throughout.

As to `Cc1cc(C2=NSC(c3cc(Cl)cc(Cl)c3)(C(F)(F)F)C2)ccc1C(=O)NC1CSC1` (centres unmarked) [Compound A22, 4-[5-(3,5-Dichloro-phenyl)-5-trifluoromethyl-4,5-dihydro-isothiazol-3-yl]-2-methyl-N-thietan-3-yl-benzamide], the pest or weed control at 200 ppm in the experiment on Diabrotica balteata, with Plutella xylostella, with Tetranychus urticae, in the experiment on Heliothis virescens, in the experiment on Spodoptera littoralis [2] and in the experiment on Thrips tabaci was at least 80% throughout.

As for `Cc1cc(C2=NSC(c3cc(Cl)cc(Cl)c3)(C(F)(F)F)C2)ccc1C(=O)NC1C[S+]([O-])C1` (centres unmarked) [Compound A21], the pest or weed control at 200 ppm with Diabrotica balteata, in the experiment with Plutella xylostella, with Tetranychus urticae, with Heliothis virescens, with Spodoptera littoralis [2] and with Thrips tabaci was at least 80% each time.

In the case of `Cc1cc(C2=NSC(c3cc(Cl)cc(Cl)c3)(C(F)(F)F)C2)ccc1C(=O)Nc1cncnc1` (centres unmarked) [Compound A48], the pest or weed control at 200 ppm in the experiment on Diabrotica balteata, with Plutella xylostella, with Tetranychus urticae, in the experiment with Heliothis virescens, in the experiment with Spodoptera littoralis [2] and in the experiment with Thrips tabaci was at least 80% throughout.

On to `Cc1cc(C2=NSC(c3cc(Cl)cc(Cl)c3)(C(F)(F)F)C2)ccc1C(=O)NC1(C)CSC1` (centres unmarked) [Compound A19], for which the pest or weed control at 200 ppm in the experiment on Diabrotica balteata, with Plutella xylostella, with Tetranychus urticae, with Heliothis virescens, in the experiment on Spodoptera littoralis [2] and in the experiment on Thrips tabaci was at least 80% in each case.

For the compound `Cc1cc(C2=NSC(c3cc(Cl)cc(Cl)c3)(C(F)(F)F)C2)ccc1C(=O)NC1CCC1` (centres unmarked) [Compound A24], in the experiment with Spodoptera littoralis [1] (leaves excised 2 days after treatment), the “Control after 2 days/%” value was 100%. Moreover, the “Control after 16 days/%” value with Spodoptera littoralis [1] (leaves excised 16 days after treatment) was 0%.

Take `Cc1cc(C2=NSC(c3cc(Cl)cc(Cl)c3)(C(F)(F)F)C2)ccc1C(=O)NCC1CSC1` (centres unmarked) [Compound A28]: the pest or weed control at 200 ppm with Diabrotica balteata, in the experiment on Plutella xylostella, in the experiment with Tetranychus urticae, in the experiment with Heliothis virescens, in the experiment on Spodoptera littoralis [2] and with Thrips tabaci was at least 80% each time.
